From patent EP2179734B1, “Benzoxazine and dihydroquinazoline derivatives for use in the treatment of alcohol withdrawal syndrome” (Biocodex, priority 2008, dated 2010)

What was measured:
souris sevrée [1] = test: Handling-induced convulsion score during alcohol withdrawal (Watson and Little 1995); assay type: in vivo; settings: NMRI mice, 4 to 6 h after removal
Protocol: (§1) Des souris de souche NMRI (élevage Janvier), âgées de 5 à 6 semaines et de poids compris entre 25 et 30 g sont utilisées après 10 jours d'habituation aux conditions du laboratoire. Les conditions d'hébergement sont les suivantes : t° ambiante = 22 ± 2 °C; hygrométrie relative = 50 ± 20 %; cycle lumière/obscurité : 12 h/12 h (lumière de 7h00 à 19h00); nourriture A04 (SAFE, France) et boisson (eau du robinet) à volonté; dix animaux groupés par cage de polypropylène (435x435x194 mm).
(§2) Dans un premier temps, les animaux ont été familiarisés avec la nourriture liquide apportée sous un volume quotidien de 40 ml durant 7 à 10 jours. Celle-ci est constituée de lait chocolaté (Candia, France) auquel sont ajoutés 5 g/l d'un mélange de sels minéraux (ICN, France) et 3 g/l d'un mélange de vitamines (ICN, France).
(§3) Dans un deuxième temps, les animaux alcoolisés ont reçu la nourriture liquide contenant 3 % (p/v) d'éthanol (95°) durant 8 jours puis 4 % (p/v) d'éthanol (95°) durant 7 jours, tandis que les animaux témoins (non alcoolisés) ont eu accès à une nourriture avec l'équivalent calorique de dextrose (D-glucose, VWR, France).
(§4) Aucune nourriture solide, ni eau de boisson n'ont été proposées aux animaux durant cette période d'alcoolisation. Au terme des 15 jours d'alcoolisation (J15), le biberon avec l'alcool a été remplacé par un biberon de nourriture identique à celui des animaux témoins.
Cette mesure est effectuée selon le protocole décrit par Watson and Little (1995) J Pharmacol Exp Ther 272: 876-884. Brièvement, l'animal est soulevé par la queue et maintenu durant 30 secondes à 30 cm d'une lampe pourvue d'une ampoule de 60W puis subit une légère rotation (360°). Le comportement de chaque animal est évalué selon une échelle de cotation de 0 à 5, selon des critères figurant dans le Tableau 1 : Tableau 1 : Différents niveaux de cotation du comportement chez la souris selon Watson et Little (1995)
La mesure est réalisée avant l'expérience (conditions basales), 24 heures avant le retrait de l'éthanol puis le jour du retrait toutes les heures de 1 à 7 heures après le retrait du biberon de nourriture (7h00 - 8h00 le matin).
L'étifoxine (6.25 - 100 mg/kg) et le diazépam (1 et 4 mg/kg) sont administrés par voie intrapéritonéale (ip) 3h30 après le retrait du biberon. Une étude préliminaire a montré que les signes de sevrage étaient présents à ce temps (score ≥ 2). Les animaux contrôles reçoivent un volume équivalent de liquide véhicule.
Un score (de 0 à 5) est attribué pour chaque animal à chaque temps (de 1 à 7 h).
L'étifoxine (lots 219 et 350; Biocodex - France) est mis en suspension dans une solution saline (NaCl-0.9 %; p/v) de tween 80 à 1% (v/v) tandis que le diazépam (Valium®) est solubilisé dans une solution saline. Le volume d'administration par voie ip est de 0.1 ml/10 g. […]

souris sevrée [2] = test: Anxiety level during alcohol withdrawal: two-compartment (light/dark) box test (Crawley and Goodwin 1980, modified); assay type: in vivo; settings: 8 h after ethanol removal, 5 min test, withdrawn NMRI mice
Protocol: as §1, §2, §3, §4
Le protocole décrit par Crawley and Goodwin (1980) Pharmacol Biochem Behav 1980; 13: 167-170 et légèrement modifié a été utilisé. Cette épreuve, reposant sur les tendances agoraphobiques et photophobiques des rongeurs, est classiquement utilisée pour mesurer leur niveau de peur ou d'anxiété.
Le dispositif est constitué d'une boîte en plexiglas à 2 compartiments (OSYS, Orga System; France) : l'un (18 x 27 x 30 cm) sombre et pourvu d'un couvercle, est éclairé à l'aide d'une lampe rouge (60W; 4 lux) tandis que le plus grand (27 x 27 x 30 cm), peint en blanc, est éclairé à l'aide d'une lampe de 60 W (400 lux). Une entrée (7.5 x 7.5 cm) située au centre de la cloison qui sépare les 2 compartiments, relie les 2 compartiments. Ceux-ci, équipés de cellules photoélectriques infra-rouges (4 dans le compartiment clair et 3 dans le compartiment sombre) reliées à un compteur digital, permettent la détection et la mesure des déplacements de l'animal. Celui-ci est déposé au centre du compartiment sombre face à l'ouverture. La latence d'entrée (en sec.) dans le compartiment clair, le nombre de déplacements dans le compartiment clair et le nombre de transition entre les 2 compartiments sombre et clair sont relevés au terme d'une épreuve de 5 min. La boîte est nettoyée avec de l'eau alcoolisée (10 %; v/v) pour éliminer toute trace odorante entre chaque passage. L'épreuve est réalisée 8 h après le retrait de la nourriture alcoolisée. Ce délai correspond au temps optimal pour la mesure du niveau d'anxiété chez l'animal soumis au sevrage alcoolique (Watson et Little (1994) Psychopharmacology (Berl) 114: 329-336).
L'étifoxine (6.25 - 50 mg/kg) ou le diazépam (1 mg/kg) est administré par voie ip 30 min avant l'épreuve. Les animaux contrôles reçoivent un volume équivalent de liquide véhicule.
L'étifoxine (lots 219 et 350; Biocodex - France) est mis en suspension dans une solution saline (NaCl-0.9 %; p/v) de tween 80 à 1% (v/v) tandis que le diazépam (Valium®) est solubilisé dans une solution saline. Le volume d'administration par voie ip est de 0.1 ml/10 g.
Les résultats sont exprimés par la valeur moyenne ± erreur standard à la moyenne (esm). Concernant la mesure de l'intensité des convulsions induites par la manipulation, l'analyse de variance (ANOVA) à 2 facteurs (temps x traitement) avec mesures répétées sur le facteur temps suivie de manière post-hoc par le test de Student Newman-Keuls, a été utilisée pour localiser les différences entre les groupes expérimentaux. […]

| SMILES | score de convulsions (souris sevrée [1]; 12.5 mg/kg ip 3h30 after ethanol removal, vs alcoholised controls, p<0.05) | score de convulsions (souris sevrée [1]; 25 mg/kg ip 3h30 after ethanol removal, vs alcoholised controls, p<0.05) | score de convulsions (souris sevrée [1]; 100 mg/kg ip 3h30 after ethanol removal, vs alcoholised controls, p<0.05) | latence d'entrée dans le compartiment clair (souris sevrée [2]; 50 mg/kg ip 30 min before test) | nombre de déplacements dans le compartiment clair (souris sevrée [2]; 50 mg/kg ip 30 min before test) | nombre de transitions entre les 2 compartiments (souris sevrée [2]; 50 mg/kg ip 30 min before test) | score de convulsions (souris sevrée [1]; mainly at 4 mg/kg ip 3h30 after ethanol removal) | latence d'entrée dans le compartiment clair (souris sevrée [2]; 1 mg/kg ip 30 min before test) | nombre de déplacements dans le compartiment clair (souris sevrée [2]; 1 mg/kg ip 30 min before test) | nombre de transitions entre les 2 compartiments (souris sevrée [2]; 1 mg/kg ip 30 min before test) |
| --- | --- | --- | --- | --- | --- | --- | --- | --- | --- | --- |
| CCNC1=Nc2ccc(Cl)cc2C(C)(c2ccccc2)O1 (stereo not shown) [étifoxine, chlorhydratede 6-chloro-2-éthylamino-4-méthyl-4-phényl-4H-[3,1]benzoxazine] | réduit significativement le score de convulsions | réduit significativement le score de convulsions | réduit significativement le score de convulsions | s'oppose aux effets du sevrage à l'éthanol sur ces 3 paramètres avec un effet statistiquement significatif | s'oppose aux effets du sevrage à l'éthanol sur ces 3 paramètres avec un effet statistiquement significatif | s'oppose aux effets du sevrage à l'éthanol sur ces 3 paramètres avec un effet statistiquement significatif | – | – | – | – |
| CN1C(=O)CN=C(c2ccccc2)c2cc(Cl)ccc21 [diazépam] | – | – | – | – | – | – | produit le même effet | atténue également de manière significative les effets du retrait de l'éthanol | atténue également de manière significative les effets du retrait de l'éthanol | atténue également de manière significative les effets du retrait de l'éthanol |
